What all share (experiment): growth of human tumour cells (NCI), 48 h
In test [1] the test system is BT-549.
Test [2] relates to Hs-578T.
Test [3] deals with MDA-MB-435.
Test [4] has as its system MDA-N.
For test [5], the system named is DMS-114.
Test [6] deals with PC-3.
In test [7] the test system is LXFL 529.
The test system of test [8] is RXF 631.

The results in this text go back to ChEMBL document CHEMBL1201862, “PubChem BioAssay data set” (2004).

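1) Cells in 96-well plates. 2) Compound, 48 h, 5 concentrations. 3) Linear interpolation between surrounding doses. 4) Unreached endpoint = highest concentration. The concentration for 50% growth inhibition is given as GI50.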 Activity calls are given as the source filed them. Cut-off read from the data, not from the text of the source: active = GI50 up to about 1.1 µM and inactive = higher.

On to `CCOC(=O)NC(Nc1ncccn1)(C(F)(F)F)C(F)(F)F`, for which the GI50 in test [1], in test [2], in test [3] and in test [4] was > 100 µM (inactive) each time.
`Cc1nc(O)nc(O)c1/C=C/C(=O)O`: in test [5], the GI50 was > 1000 µM (inactive).
As to `CCN1c2ccccc2-n2c(C)nnc2-c2c(-c3ccccc3)n[nH]c21`, the GI50 in test [2] is 46.1 µM (inactive); in test [3], 16.2 µM (inactive); in test [4], 28 µM (inactive); in test [6] it was 30.4 µM (inactive).
For the compound `O=C(N/C(=C\c1ccccc1[N+](=O)[O-])c1nc2ccccc2[nH]1)c1ccccc1`, the figures for the GI50 in test [7] and in test [8] were 59.4 µM (inactive) and > 100 µM (inactive), respectively.
As for `CCOc1ncn(-c2ccc(NC(=S)Nc3ncccn3)cc2)n1`, the GI50 was 20.8 µM (inactive) in test [1], 56.1 µM (inactive) in test [3] and 46.5 µM (inactive) in test [6].
As for `CC(Sc1ccccc1)C(CO)(CO)[N+](=O)[O-]` (configuration not stated), the GI50 in test [5] is 17.2 µM (inactive); in test [7], 13.7 µM (inactive).
With `CCC1C(C#N)=C(O)NC(O)=C1C#N`, the GI50 in test [5], in test [7] and in test [8] was > 100 µM (inactive) throughout.
In the case of `CCP(=O)(CC)C(Cl)(Cl)C(O)C(Cl)(Cl)Cl` (configuration not stated), the GI50 in test [2], in test [4] and in test [6] was > 100 µM (inactive) throughout.
Consider `O=C(CCN1CCOCC1)/C(=C/c1ccccc1)c1ccccc1`, for which the GI50 in test [5] was 3.06 µM (inactive).
Consider `CCOC(=O)Cc1cc(OC)c(OC)cc1/C(Cl)=C(\C=O)c1ccc(OC)c(OC)c1`, for which the GI50 in test [5] is 18.2 µM (inactive); in test [8], 20.3 µM (inactive).
With `CC(=O)c1c(-c2ccco2)c(C#N)c(=S)n(C2OC(CO)C(O)C(O)C2O)c1-c1ccccc1` (configuration not stated), the GI50 in test [1] is > 100 µM (inactive); in test [2], 61.8 µM (inactive); in test [3] it was 29.2 µM (inactive); in test [4], > 10 µM (inactive); in test [6] it was 64.4 µM (inactive).
As for `COc1ccc(-c2cc(O)c3c(C)ccnc3n2)cc1`, the GI50 in test [1] is 33.7 µM (inactive); in test [2] it was 23.8 µM (inactive).
